Usually IC50 stands for the concentration that gives 50% inhibition.

The structures appear in SMILES notation. Where “and” joins values, the source holds several entries; their conditions need not be identical. Identical values can stand only once.

For the assay, the target named is NusA-5HB (Severe acute respiratory syndrome coronavirus 2, UniProt P0DTC2). Kind of assay: Competitive FP assays of small molecules. Type of assay: binding, SARS-CoV-2. Particulars: IC50, 8 nM NusA-5HB, 5 nM HR2P-FL, 4% DMSO.

On to `O=C(/C=C/c1ccc(O)c(O)c1/C=C/c1ccc(O)c(O)c1)O[C@H](Cc1ccc(O)c(O)c1)C(=O)O` [Sal-A, Salvianolic acid A], for which the IC50 was 3.9 µM and ~3.9 µM.

`O=C(O)/C=C/c1ccc(O)c(O)c1` [caffeic acid, Caffeic acid]: the IC50 was 638 µM and ~638 µM.

These data come from publication PMC8457910 (Bioorganic Chemistry, 2021).
